Patent publication US6043212A, “Recombinant C140 receptor, its agonists and antagonists, and nucleic acids encoding the receptor” (COR Therapeutics, Inc., priority 1995, dated 2000)
Changes are numbered by the printed parent chain. Peptide text beside a SMILES is read from it.

What was measured:
Assay type in all cases: cell-based
[1] = target: T1, mutant C140 receptor 35Pro (serine-35 replaced with proline) (Mus musculus, UniProt P55086, S39P); test: 45Ca release by Xenopus oocytes expressing mutant C140 receptor 35Pro; conditions: 35Pro receptor
T1 construct: Site-directed mutagenesis was employed to construct mutant receptors in the pSG-5; expressed in transfected cells; host or cells: Xenopus laevis oocytes injected with capped cRNA
T1 sequence (P55086 32-399 S39P limits assumed): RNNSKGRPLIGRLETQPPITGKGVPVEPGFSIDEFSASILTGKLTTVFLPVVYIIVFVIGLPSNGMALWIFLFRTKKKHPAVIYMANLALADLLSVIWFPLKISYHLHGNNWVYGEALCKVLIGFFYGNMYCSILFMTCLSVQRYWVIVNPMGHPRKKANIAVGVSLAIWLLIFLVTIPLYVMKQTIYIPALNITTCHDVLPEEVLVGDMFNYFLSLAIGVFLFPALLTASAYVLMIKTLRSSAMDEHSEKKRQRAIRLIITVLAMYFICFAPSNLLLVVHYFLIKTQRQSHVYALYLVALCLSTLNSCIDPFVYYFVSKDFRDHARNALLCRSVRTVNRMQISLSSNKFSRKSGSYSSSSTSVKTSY
Description: (§1) Both native and mutant C140 receptors were produced in oocytes and activated with a peptide mimicking the new amino-terminus", or by the proteolytic enzyme trypsin (which cleaves the extracellular region). Native receptors were produced by cloning the coding region of the receptor gene, using the polymerase chain reaction, into the expression vector pSG-5 (Green, S. et al., Nucleic Acid Res (1988) 16:369). The orientation and integrity of the cloned coding region was verified by determining the nucleotide sequence with the Sanger chain-termination method. Site-directed mutagenesis was employed to construct mutant receptors in the pSG-5. […]
(§2) Oocytes from Xenopus laevis were harvested and prepared using published techniques (Coleman, A., in Hames, B. D., and Higgins, S. J., eds, Transcription and Translation: A Practical Approach, IRL Press, pp. 271-302; Williams, J. A., et al. Proc Natl Acad Sci USA (1988) 85:4939-4943]. To remove follicular cells, oocytes were incubated for 1.5 h with shaking in calcium-free Barth's containing 2 mg/ml each of collagenase 1A and hyaluronidase 1S. The oocytes were then washed five times in regular Barth's and incubated at 18° C. in Barth's medium containing 100 U/ml penicillin, 100 μg/ml streptomycin, and 2.5 mM sodium pyruvate. […] The harvested medium was analyzed by scintillation counting. […]

[2] = target: T2, mutant C140 receptor 35Arg (serine-35 replaced with arginine) (Mus musculus, UniProt P55086, S39R); test: 45Ca release by Xenopus oocytes expressing mutant C140 receptor 35Arg; conditions: 35Arg receptor
T2 construct: Site-directed mutagenesis was employed to construct mutant receptors in the pSG-5; expressed in transfected cells; host or cells: Xenopus laevis oocytes injected with capped cRNA
T2 sequence (P55086 32-399 S39R limits assumed): T1 sequence (P55086 32-399 S39P limits assumed) with P8R
Description: as §1, §2

[3] = target: T3, mutant C140 receptor 35His (serine-35 replaced with histidine) (Mus musculus, UniProt P55086, S39H); test: 45Ca release by Xenopus oocytes expressing mutant C140 receptor 35His; conditions: 35His receptor
T3 construct: Site-directed mutagenesis was employed to construct mutant receptors in the pSG-5; expressed in transfected cells; host or cells: Xenopus laevis oocytes injected with capped cRNA
T3 sequence (P55086 32-399 S39H limits assumed): T1 sequence (P55086 32-399 S39P limits assumed) with P8H
Description: as §1, §2

[4] = peptide at 100 μM, same oocytes after trypsin stimulation
[5] = trypsin at 300 pM, increase compared to water-injected oocytes

Row | Compound | Fold increase in 45Ca [1, 4] [fold] | Fold increase in 45Ca [2, 4] [fold] | Fold increase in 45Ca [3, 4] [fold] | Fold increase in 45Ca [1, 5] [fold] | Fold increase in 45Ca [2, 5] [fold] | Fold increase in 45Ca [3, 5] [fold]
1 | CC[C@H](C)[C@H](NC(=O)[C@H](CC(C)C)NC(=O)[C@@H](N)CO)C(=O)NCC(=O)N[C@@H](CCCNC(=N)N)C(=O)N[C@@H](CC(C)C)C(=O)O [SLIGRL] (H-SLIGRL-OH) | 23 | 15 | 23 |  |  | 
2 | trypsin |  |  |  | 0 | 0 | 0
